Reference: patent publication US9079853B2, “Isatin compounds, compositions and methods for treatment of degenerative diseases and disorders” (MUSC FOUNDATION FOR RESEARCH DEVELOPMENT, priority 2013, dated 2015)

Key:
661W or C6 cells [1] = assay: MTT assay, protection against calcium-ionophore A23187; format: cell-based; conditions: 1 μM A23187, 24 h
Protocol: The compound 3-(4,5-Dimethylthiazol-2-yl)-2,5-diphenyltetrazolium bromide (MTT) is a tetrazolium ion that is reduced to a blue formazan dye via several families of NAD(P)H-dependent oxidoreductases. Formation of the formazan dye from MTT or other related tetrazolium dyes are commonly used as a viability assay even though, in fact, the assay is a metabolic capacity assay.
In this assay, 661W or C6 cells were maintained in DMEM supplemented with 10% FBS. 100 μL of 70,000 cells/mL cells were seeded into each well of 96 well plates using DMEM supplemented with 5% FBS. Cells were then allowed to grow to confluency for 48 hours. The compounds of the invention were added in 2 μL media and calcium-ionophore A23187 was then added in 1 μL for a final concentration of 1 μM and after 24 h, 20 μL of […] MTT were added to each well and the cells were incubated for another 4 h after which 100 μL of 1% SDS in 0.01M aqueous HCl were added to each well and the plates were incubated overnight. Absorbance was measured at […] (background correction). The 1 μM ionophore A23187 caused about 50% loss in MTT signal at 24 h. Protection was calculated as the increase in absorbance of treatment groups normalized to the vehicle control.

661W or C6 cells [2] = assay: XF FCCP-uncoupled oxygen consumption rate assay (IBMX challenge); format: cell-based; conditions: 1 h pretreatment, 600 μM IBMX, 24 h, read-out: XF FCCP OCR (% Ctrl); for activity at 0.001 µM: compound 1 nM;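 as to all read-outs here: values normalized to the vehicle control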
Protocol: The XF FCCP-uncoupled oxygen consumption rate assay assesses mitochondrial capacity by measuring cellular respiration. It was shown that the maximum FCCP-uncoupled oxygen consumption rate (OCR) was a good estimate of maximal mitochondrial capacity (Beeson 2010) and that IBMX treatment of 661W or C6 cells for 24 h caused a loss in maximal uncoupled OCR (Perron 2013). Thus, cells were pretreated with the exemplified compounds for 1 h, added 600 μM IBMX and then measured the uncoupled rate after 24 h. In brief, the OCR measurements were performed using a Seahorse Bioscience XF instrument (Seahorse Bioscience, Billerica, Md.), as previously published (Perron 2013). O2 leakage through the plastic sides and bottom of the plate was accounted for using the AKOS algorithm in the XF software package. Cells were plated on 96- or 24-well custom plates designed for use in the XF and grown to confluency in DMEM+5% FBS (48 h). The medium was then replaced with DMEM+1% FBS for 24 h, along with any treatments.

[3] = test system: rd1 mouse retina organ cultures; assay: Retinal degeneration assay, rd1 mouse retinal explants; format: cell-based; conditions: rows of photoreceptors in ONL, explants cultured 11 days
Protocol: It was reasoned that the compounds' activities would enable them to protect against loss of photoreceptors in retinal degenerative animal models. As a translational bridge between the cell line-based assays and in vivo animal studies, mouse retina organ cultures were utilized. These retinal explants were a powerful ex vivo screening tool, which allowed the testing of photoreceptor cell survival within the retinal network, and the effects of a specific compound were tested like in an in vitro system, without systemic interference. In this assay, the rd1 mouse was utilized. The genotype of the rd1 mouse has a mutation in the β-subunit of the phosphodiesterase gene. […] The genetic deficit and the retinal pathology were very similar to that observed in the patients with βPDE-dependent RP. In these mice, rod photoreceptor degeneration started after postnatal day 10 (P10), progressing rapidly, such that at P21, only 1-2 rows of photoreceptor remained, mainly representing cones. Finally, the rd1 mouse retina was amenable to culturing, replicating both retinal development and degeneration, following the same time course as in vivo. The retinal explants were cultured for 11 days ex vivo. […] At the end of the experiments, tissues were fixed, sectioned and stained with 0.1% toluidine and the numbers of rows of photoreceptors remaining in the outer nuclear layer (ONL) were counted.

Balb/c mice = assay: Light model assay (constant light damage, eyedrops); format: in vivo, mouse; conditions: continuous light 7 days, rows of photoreceptors
From the text: The light model assay is generally accepted as a model of age related macular degeneration (AMD). […] In particular, oxidative damage has been detected by immunohistochemistry, detecting the presence of oxidized and tyrosine-phosphorylated proteins as well as the upregulation of endogenous antioxidants such as thioredoxin and glutathione peroxidase. […] Additional indirect evidence for the involvement of oxidative stress in photoreceptor degeneration has been provided by treatment of photodamaged retinas with antioxidants such as dimethylthiourea, or the treatment of N-methyl-N-nitrosourea (MNU)-challenged rats with the antioxidant DHA.
The light model assay was used to further test the therapeutic potential of the compounds of the invention. Photoreceptors from albino animals are very sensitive to constant light, lacking the RPE pigment to protect them. Thus, Balb/c mice were exposed to continuous light for 7 days, which caused loss of about 50% of the photoreceptor cells as measured via histology. To test the potential therapeutic efficacy, eyedrops were formulated in 0.1% Bij 35 in […], applied once or twice daily throughout the period of light exposure, and their effect assessed on the light-induced degeneration of photoreceptor cells morphologically and electrophysiologically, 10 days after the onset of the CL exposure.

[4] = test system: retinal explants from Ser344ter-3 rats; assay: S334ter assay, retinal explants; format: cell-based, rat; conditions: P12-P17 retinal explants
Protocol: To further evaluate neuroprotection, certain compounds of the invention were evaluated with the Ser344ter-3 rats in which a truncation in the rhodopsin […] eliminated a phosphorylation site. It has been shown that the Ser344ter-3 rhodopsin was extensively misfolded causing induction of ER stress genes BiP and CHOP (Kroeger 2012). […] Statistically significant protection against loss of photoreceptor cell nuclei was observed (Table 5 below).

## CCCN1C(=O)C(O)(CC(=O)c2c[nH]c3ccccc23)c2cc(Cl)ccc21 (stereo not drawn) [Example 31, 3-(2-(1H-indol-3-yl)-2-oxoethyl)-5-chloro-3-hydroxy-1-propylindolin-2-one]
661W or C6 cells [1]; compound 1 nM
  MTT, % protection: 64.2%,
661W or C6 cells [2]
  activity at 0.001 µM: 74%
[3]; 10 nM
  rd1 protection (# of rows): 10 nM, 2.53 # of rows
Balb/c mice; 1 mM eyedrops once per day
  LD Protection (# of rows): 5.94 # of rows

## CCCCN1C(=O)C(O)(CC(=O)c2ccccn2)c2ccccc21 (stereo not drawn) [Example 12, 1-butyl-3-hydroxy-3-(2-oxo-2-(pyridin-2-yl)ethyl)indolin-2-one]
661W or C6 cells [1]; compound 10 μM
  MTT, % protection: 67%,
661W or C6 cells [2]; compound 10uM
  activity at 10 µM: 73%
[3]; 5 μM
  rd1 protection (# of rows): 5 μM, 3.19 # of rows
Balb/c mice; 1 mM eyedrops once per day
  LD Protection (# of rows): 5.33 # of rows
[4]; 1 μM
  s334ter protection (# of rows): 1 μM 3.86 # of rows

## C#CCCCN1C(=O)C(O)(CC(=O)c2c[nH]c3ccccc23)c2cc(C)ccc21 (stereo not drawn) [Example 13, 3-(2-(1H-indol-3-yl)-2-oxoethyl)-3-hydroxy-5-methyl-1-(pent-4-yn-1-yl)indolin-2-one]
661W or C6 cells [1]; compound 100 nM
  MTT, % protection: 79.4%,
Balb/c mice; 1 mM eyedrops once per day
  LD Protection (# of rows): 5.44 # of rows

## CCN1C(=O)C(Cc2cccc(OC)c2O)(OC(=O)c2ccccc2)c2cc(Cl)ccc21 (stereo not drawn) [Example 59, 5-chloro-1-ethyl-3-(2-hydroxy-3-methoxybenzyl)-2-oxoindolin-3-yl benzoate]
661W or C6 cells [1]; compound 1 μM
  MTT, % protection: 117.4%,
661W or C6 cells [2]
  activity at 0.001 µM: 92%
Balb/c mice; 100 μM eyedrops once per day
  LD Protection (# of rows): 5.98 # of rows

## COc1ccc(O)c(CC2(OC(=O)c3ccccc3)C(=O)N(CCCC(C)C)c3ccc(C)cc32)c1 (stereo not drawn) [Example 58, 3-(2-hydroxy-5-methoxybenzyl)-5-methyl-1-(4-methylpentyl)-2-oxoindolin-3-yl benzoate]
661W or C6 cells [1]; compound 100 nM
  MTT, % protection: 100%,
661W or C6 cells [2]
  activity at 0.001 µM: 97%
Balb/c mice; 100 μM eyedrops once per day
  LD Protection (# of rows): 6.06 # of rows
[4]; 50 nM
  s334ter protection (# of rows): 50 nM, 2.73 # of rows

## CCN1C(=O)C(O)(Cc2cc(OC)c(OC)c(OC)c2)c2cc(C)ccc21 (stereo not drawn) [Example 34, 1-ethyl-3-hydroxy-5-methyl-3-(3,4,5-trimethoxybenzyl)indolin-2-one]
661W or C6 cells [1]; compound 1 nM
  MTT, % protection: 82.4%,
661W or C6 cells [2]
  activity at 0.001 µM: 94%
Balb/c mice; 10 μM eyedrops once per day
  LD Protection (# of rows): 5.47 # of rows
